Article PMC7026418, “The kinase polypharmacology landscape of clinical PARP inhibitors” (Scientific Reports, 2020)
Read-outs that look alike come from different tables or passages of the source.

Tests used:
Test in all cases: biochemical
Set-up in all cases: DiscoveRx KINOMEscan active site-directed competition binding; percent of control kinase bound to immobilised ligand
p38-delta = target: T1, p38-delta (Homo sapiens, UniProt O15264)
T1 construct: gene MAPK13
T1 sequence (O15264 1-365): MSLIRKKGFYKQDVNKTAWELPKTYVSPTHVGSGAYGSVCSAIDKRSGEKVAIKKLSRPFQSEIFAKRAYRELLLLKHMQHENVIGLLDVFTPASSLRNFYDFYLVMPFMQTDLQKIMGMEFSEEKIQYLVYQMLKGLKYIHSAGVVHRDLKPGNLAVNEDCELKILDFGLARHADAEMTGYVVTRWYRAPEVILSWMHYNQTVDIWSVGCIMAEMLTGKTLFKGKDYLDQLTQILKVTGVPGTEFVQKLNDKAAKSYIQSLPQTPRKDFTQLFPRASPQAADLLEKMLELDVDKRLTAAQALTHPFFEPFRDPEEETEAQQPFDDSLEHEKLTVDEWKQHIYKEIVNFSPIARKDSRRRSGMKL

MKNK2 = MKNK2 (Homo sapiens, UniProt Q9HBH9)
HASPIN = target: T2, HASPIN (Homo sapiens, UniProt Q8TF76)
T2 sequence (Q8TF76 1-798): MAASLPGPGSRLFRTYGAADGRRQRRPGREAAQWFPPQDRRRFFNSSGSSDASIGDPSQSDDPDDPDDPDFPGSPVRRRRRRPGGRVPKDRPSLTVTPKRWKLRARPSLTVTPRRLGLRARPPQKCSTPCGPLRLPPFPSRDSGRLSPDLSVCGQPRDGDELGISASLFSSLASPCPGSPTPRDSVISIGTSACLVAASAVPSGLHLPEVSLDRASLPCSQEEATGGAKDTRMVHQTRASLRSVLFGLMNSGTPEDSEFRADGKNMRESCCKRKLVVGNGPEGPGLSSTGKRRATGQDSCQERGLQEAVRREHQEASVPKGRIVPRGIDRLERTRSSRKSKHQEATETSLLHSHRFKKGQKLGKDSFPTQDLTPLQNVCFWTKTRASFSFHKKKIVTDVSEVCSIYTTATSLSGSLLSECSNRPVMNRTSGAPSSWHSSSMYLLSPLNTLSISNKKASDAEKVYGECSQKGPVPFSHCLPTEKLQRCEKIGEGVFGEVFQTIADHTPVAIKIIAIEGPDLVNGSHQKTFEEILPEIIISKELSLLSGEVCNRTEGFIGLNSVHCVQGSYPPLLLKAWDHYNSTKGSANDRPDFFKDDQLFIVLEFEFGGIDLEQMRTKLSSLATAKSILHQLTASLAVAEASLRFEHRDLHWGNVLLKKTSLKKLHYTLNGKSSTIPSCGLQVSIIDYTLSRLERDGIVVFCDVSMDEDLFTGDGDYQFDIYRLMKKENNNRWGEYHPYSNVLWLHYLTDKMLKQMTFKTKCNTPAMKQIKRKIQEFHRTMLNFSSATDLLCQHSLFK

EGFR = EGFR (Homo sapiens, UniProt P00533)
CDK8 = CDK8 (Homo sapiens, UniProt P49336)
FLT3(ITD,D835V) = target: T3, FLT3(ITD,D835V) (Homo sapiens, UniProt P36888, D835V/ITD)
T3 sequence (P36888 564-993 D835V): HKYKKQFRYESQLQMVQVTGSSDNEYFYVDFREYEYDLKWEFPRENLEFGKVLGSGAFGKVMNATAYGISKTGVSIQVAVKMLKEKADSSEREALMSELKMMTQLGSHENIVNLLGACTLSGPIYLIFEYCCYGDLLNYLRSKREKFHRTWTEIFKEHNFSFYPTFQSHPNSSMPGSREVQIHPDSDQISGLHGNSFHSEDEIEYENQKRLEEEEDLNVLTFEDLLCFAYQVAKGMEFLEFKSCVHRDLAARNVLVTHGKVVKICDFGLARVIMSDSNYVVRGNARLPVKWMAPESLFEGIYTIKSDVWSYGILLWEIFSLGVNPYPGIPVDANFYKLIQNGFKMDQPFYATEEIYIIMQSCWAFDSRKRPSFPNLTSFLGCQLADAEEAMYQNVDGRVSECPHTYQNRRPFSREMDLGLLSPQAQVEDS

BMPR1A = BMPR1A (Homo sapiens, UniProt P36894)
DCAMKL3 = target: T4, DCAMKL3 (Homo sapiens, UniProt Q9C098)
T4 construct: gene DCLK3
T4 sequence (Q9C098 1-648): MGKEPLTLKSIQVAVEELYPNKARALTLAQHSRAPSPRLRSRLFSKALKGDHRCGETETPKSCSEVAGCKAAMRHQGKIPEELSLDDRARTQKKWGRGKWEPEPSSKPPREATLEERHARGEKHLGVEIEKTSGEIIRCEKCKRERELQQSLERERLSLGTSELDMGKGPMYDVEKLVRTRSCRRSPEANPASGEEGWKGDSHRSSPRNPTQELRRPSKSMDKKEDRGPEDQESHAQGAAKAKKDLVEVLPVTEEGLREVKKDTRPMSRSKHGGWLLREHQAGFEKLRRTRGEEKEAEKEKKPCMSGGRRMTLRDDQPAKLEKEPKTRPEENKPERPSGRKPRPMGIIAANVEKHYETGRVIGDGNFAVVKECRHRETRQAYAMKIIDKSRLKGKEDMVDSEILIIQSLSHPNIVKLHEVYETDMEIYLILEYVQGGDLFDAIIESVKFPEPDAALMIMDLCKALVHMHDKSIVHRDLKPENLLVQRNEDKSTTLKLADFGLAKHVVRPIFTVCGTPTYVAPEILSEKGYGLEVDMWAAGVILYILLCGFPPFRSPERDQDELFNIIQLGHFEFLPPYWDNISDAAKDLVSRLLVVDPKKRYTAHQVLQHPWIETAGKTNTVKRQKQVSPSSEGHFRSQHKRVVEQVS

[1] = read-out: Talazoparib (BMN 673) / %Ctrl @ 10000nM
[2] = read-out: Olaparib / %Ctrl @ 10000nM
[3] = read-out: Niraparib (MK-4827) / %Ctrl @ 10000nM
[4] = read-out: Rucaparib / %Ctrl @ 10000nM, binding competition, % of control

Sequence of CDK8 (P49336 whole entry): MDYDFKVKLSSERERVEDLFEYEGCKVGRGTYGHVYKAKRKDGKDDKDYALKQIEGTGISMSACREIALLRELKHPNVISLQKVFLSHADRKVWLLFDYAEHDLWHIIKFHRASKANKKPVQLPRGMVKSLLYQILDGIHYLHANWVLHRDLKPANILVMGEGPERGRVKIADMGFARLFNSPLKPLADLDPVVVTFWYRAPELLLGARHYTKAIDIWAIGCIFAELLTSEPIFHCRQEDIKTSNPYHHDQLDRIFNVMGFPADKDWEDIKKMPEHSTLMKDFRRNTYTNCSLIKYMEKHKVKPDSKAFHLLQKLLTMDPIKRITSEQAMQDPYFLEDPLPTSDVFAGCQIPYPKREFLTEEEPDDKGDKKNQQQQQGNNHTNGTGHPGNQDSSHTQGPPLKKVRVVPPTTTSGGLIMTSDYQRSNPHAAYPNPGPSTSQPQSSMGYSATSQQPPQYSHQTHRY
Sequence of EGFR (P00533 whole entry): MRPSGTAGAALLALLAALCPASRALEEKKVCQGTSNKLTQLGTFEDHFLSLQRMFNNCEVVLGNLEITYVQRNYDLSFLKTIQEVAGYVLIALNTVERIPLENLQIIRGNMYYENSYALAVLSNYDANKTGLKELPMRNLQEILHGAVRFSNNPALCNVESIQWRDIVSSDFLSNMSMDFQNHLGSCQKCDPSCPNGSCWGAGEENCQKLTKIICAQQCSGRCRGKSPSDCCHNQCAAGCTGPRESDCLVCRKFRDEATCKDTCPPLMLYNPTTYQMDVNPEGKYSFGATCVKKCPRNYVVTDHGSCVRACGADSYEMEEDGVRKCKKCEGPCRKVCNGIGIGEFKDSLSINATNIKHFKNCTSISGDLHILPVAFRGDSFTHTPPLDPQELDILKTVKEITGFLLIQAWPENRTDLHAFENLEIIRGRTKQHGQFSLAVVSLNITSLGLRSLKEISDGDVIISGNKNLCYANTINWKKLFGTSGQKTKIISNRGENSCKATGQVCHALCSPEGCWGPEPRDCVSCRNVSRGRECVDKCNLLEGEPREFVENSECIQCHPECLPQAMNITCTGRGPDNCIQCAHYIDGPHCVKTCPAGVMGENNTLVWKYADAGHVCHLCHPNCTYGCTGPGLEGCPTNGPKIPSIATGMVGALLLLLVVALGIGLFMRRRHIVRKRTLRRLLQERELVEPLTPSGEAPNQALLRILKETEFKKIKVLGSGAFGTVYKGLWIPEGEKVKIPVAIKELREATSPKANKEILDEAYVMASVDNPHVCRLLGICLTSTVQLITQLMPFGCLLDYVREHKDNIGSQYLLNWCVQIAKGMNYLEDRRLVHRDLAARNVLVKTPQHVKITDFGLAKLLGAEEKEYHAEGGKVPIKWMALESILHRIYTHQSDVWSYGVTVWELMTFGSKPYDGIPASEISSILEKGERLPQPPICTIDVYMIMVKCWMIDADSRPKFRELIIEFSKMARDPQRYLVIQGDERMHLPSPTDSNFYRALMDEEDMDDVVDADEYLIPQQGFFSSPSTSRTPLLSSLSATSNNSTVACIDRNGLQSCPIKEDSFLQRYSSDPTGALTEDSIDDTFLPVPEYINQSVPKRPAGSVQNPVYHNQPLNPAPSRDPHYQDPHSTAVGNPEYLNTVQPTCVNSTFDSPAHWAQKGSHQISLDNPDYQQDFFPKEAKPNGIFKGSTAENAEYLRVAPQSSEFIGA
Sequence of BMPR1A (P36894 whole entry): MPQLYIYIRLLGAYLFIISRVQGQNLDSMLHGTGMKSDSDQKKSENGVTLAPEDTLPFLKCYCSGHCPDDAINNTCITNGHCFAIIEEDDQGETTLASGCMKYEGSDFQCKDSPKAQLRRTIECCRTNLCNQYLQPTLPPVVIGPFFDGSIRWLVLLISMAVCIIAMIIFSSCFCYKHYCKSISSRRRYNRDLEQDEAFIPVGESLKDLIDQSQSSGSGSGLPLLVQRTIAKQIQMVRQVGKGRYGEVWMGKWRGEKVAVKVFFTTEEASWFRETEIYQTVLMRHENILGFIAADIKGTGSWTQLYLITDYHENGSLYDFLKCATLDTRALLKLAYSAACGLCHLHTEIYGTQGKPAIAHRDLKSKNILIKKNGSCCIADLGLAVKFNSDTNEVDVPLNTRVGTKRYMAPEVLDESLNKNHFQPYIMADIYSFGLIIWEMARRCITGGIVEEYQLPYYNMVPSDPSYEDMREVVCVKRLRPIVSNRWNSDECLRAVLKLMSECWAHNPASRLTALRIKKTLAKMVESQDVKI
Sequence of MKNK2 (Q9HBH9 whole entry): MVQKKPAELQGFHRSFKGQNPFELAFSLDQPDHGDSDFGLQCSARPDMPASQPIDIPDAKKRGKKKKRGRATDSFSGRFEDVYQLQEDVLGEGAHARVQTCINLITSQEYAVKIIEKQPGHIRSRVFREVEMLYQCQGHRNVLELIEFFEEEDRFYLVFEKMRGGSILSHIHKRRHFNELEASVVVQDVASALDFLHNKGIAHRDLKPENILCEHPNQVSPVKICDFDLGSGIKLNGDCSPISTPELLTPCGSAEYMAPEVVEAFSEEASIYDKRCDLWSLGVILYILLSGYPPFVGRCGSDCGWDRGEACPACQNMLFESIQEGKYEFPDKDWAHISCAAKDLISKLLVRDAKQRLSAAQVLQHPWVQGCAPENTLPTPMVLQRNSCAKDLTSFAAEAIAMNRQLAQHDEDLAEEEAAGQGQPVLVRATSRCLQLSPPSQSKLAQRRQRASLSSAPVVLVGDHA

For Cn1ncnc1[C@H]1c2n[nH]c(=O)c3cc(F)cc(c23)N[C@@H]1c1ccc(F)cc1 [Talazoparib], which percent of control binding at 10 µM (p38-delta; [1]) is on record?
Its percent of control binding at 10 µM is 98%.

And the percent of control binding at 10 µM (MKNK2; [1])?
The percent of control binding at 10 µM was 80%.

What about the percent of control binding at 10 µM (HASPIN; [1]) of the same compound?
The percent of control binding at 10 µM was 100%.

And the percent of control binding at 10 µM (EGFR; [1])?
Its percent of control binding at 10 µM is 85%.

And the percent of control binding at 10 µM (CDK8; [1])?
The percent of control binding at 10 µM was 99%.

And the percent of control binding at 10 µM (FLT3(ITD,D835V); [1])?
The percent of control binding at 10 µM was 100%.

What about the percent of control binding at 10 µM (BMPR1A; [1]) of the same compound?
The percent of control binding at 10 µM was 100%.

And the percent of control binding at 10 µM (DCAMKL3; [1])?
Its percent of control binding at 10 µM is 100%.

What does the source list for O=C(c1cc(Cc2n[nH]c(=O)c3ccccc23)ccc1F)N1CCN(C(=O)C2CC2)CC1 [Olaparib]?
percent of control binding at 10 µM (p38-delta; [2]): 84%; percent of control binding at 10 µM (MKNK2; [2]): 87%; percent of control binding at 10 µM (HASPIN; [2]): 72%; percent of control binding at 10 µM (EGFR; [2]): 82%; percent of control binding at 10 µM (CDK8; [2]): 100%; percent of control binding at 10 µM (FLT3(ITD,D835V); [2]): 100%; percent of control binding at 10 µM (BMPR1A; [2]): 100%; percent of control binding at 10 µM (DCAMKL3; [2]): 88%

What does the source list for NC(=O)c1cccc2cn(-c3ccc([C@@H]4CCCNC4)cc3)nc12 [Niraparib]?
percent of control binding at 10 µM (p38-delta; [3]): 82%; percent of control binding at 10 µM (MKNK2; [3]): 71%; percent of control binding at 10 µM (HASPIN; [3]): 2.2%; percent of control binding at 10 µM (EGFR; [3]): 67%; percent of control binding at 10 µM (CDK8; [3]): 68%; percent of control binding at 10 µM (FLT3(ITD,D835V); [3]): 36%; percent of control binding at 10 µM (BMPR1A; [3]): 94%; percent of control binding at 10 µM (DCAMKL3; [3]): 85%

What does the source list for CNCc1ccc(-c2[nH]c3cc(F)cc4c3c2CCNC4=O)cc1 [Rucaparib]?
percent of control binding at 10 µM (p38-delta; [4]): 100%; percent of control binding at 10 µM (MKNK2; [4]): 38%; percent of control binding at 10 µM (HASPIN; [4]): 9%; percent of control binding at 10 µM (EGFR; [4]): 87%; percent of control binding at 10 µM (CDK8; [4]): 86%; Rucaparib / %Ctrl @ 10000nM (FLT3(ITD,D835V); binding competition, % of control): 8.1%; percent of control binding at 10 µM (BMPR1A; [4]): 91%; percent of control binding at 10 µM (DCAMKL3; [4]): 44%
